Results taken from patent US20120009257A1 (priority 2009, published 2012).

How the values were obtained:
[1] = Bioequivalence study of fixed combination versus free combination, plasma PK by LC/MS/MS; assay type: in vivo, healthy subjects
Protocol: Pharmacokinetic measurements were performed on blood collected from each subject. […] The PK parameters were determined in plasma, using non-compartmental methods.
AUC0-tlast: Area under the concentration-time curve from time zero to time tlast, where tlast is the last time point with measurable concentration (ng hr/ml).
AUC0-inf: Area under the plasma concentration-time curve from time zero to infinity (ng hr/ml).
Cmax: Maximum (peak) plasma concentration (ng/ml).
Tmax: Time to reach peak or maximum concentration (hr).
T1/2: Elimination half-life associated with the terminal slope (E) of a semilogarithmic concentration-time curve (hr).

[2] = drug substance; cited from earlier work

intra-subject coefficient of variation (CV) for AUC0-inf ([1]; aliskiren)	intra-subject coefficient of variation (CV) for AUC0-tlast ([1]; aliskiren)	intra-subject coefficient of variation (CV) for Cmax ([1]; aliskiren)	intra-subject CV for AUC0-inf ([1]; valsartan)	intra-subject CV for AUC0-tlast ([1]; valsartan)	intra-subject CV for Cmax ([1]; valsartan)	Compound	hygroscopicity [2]
33.19%	33.98%	51.90%	–	–	–	COCCCOc1cc(C[C@@H](C[C@H](N)[C@@H](O)C[C@H](C(=O)NCC(C)(C)C(N)=O)C(C)C)C(C)C)ccc1OC [Aliskiren, 2(S),4(S),5(S),7(S)—N-(3-amino-2,2-dimethyl-3-oxopropyl)-2,7-di(1-methylethyl)-4-hydroxy-5-amino-8-[4-methoxy-3-(3-methoxy-propoxy)phenyl]-octanamide]	highly hygroscopic
–	–	–	28.33%	28.56%	40.37%	CCCCC(=O)N(Cc1ccc(-c2ccccc2-c2nnn[nH]2)cc1)[C@H](C(=O)O)C(C)C [Valsartan]	–
